Data published in ChEMBL document CHEMBL3045563, “Synthesis and in vitro antibacterial activity of schiff bases of N-substituted isatins as effective scaffolds” (2013).
Values after ≈ are worked out from the molar mass of the structure shown.

Key:
Format in all cases: functional
Pseudomonas aeruginosa [1] = experiment: Antibacterial activity against Pseudomonas aeruginosa NCIM 2036 assessed as growth inhibition after 48 hr by NCCLS broth dilution method; conditions: NCIM 2036, 48 h
Proteus vulgaris [2] = experiment: Antibacterial activity against Proteus vulgaris NCIM 2027 assessed as diameter of growth zone inhibition after 24 hr by disk diffusion method
Staphylococcus aureus [3] = experiment: Antibacterial activity against Staphylococcus aureus NCIM 2079 assessed as growth inhibition after 48 hr by NCCLS broth dilution method; conditions: NCIM 2079, 48 h
[4] = test system: Staphylococcus epidermidis; experiment: Antibacterial activity against Staphylococcus epidermidis NCIM 2493 assessed as growth inhibition after 48 hr by NCCLS broth dilution method; conditions: NCIM 2493, 48 h
Escherichia coli [5] = experiment: Antibacterial activity against Escherichia coli NCIM 2065 assessed as diameter of growth zone inhibition after 24 hr by disk diffusion method
[6] = test system: Staphylococcus epidermidis; experiment: Antibacterial activity against Staphylococcus epidermidis NCIM 2493 assessed as diameter of growth zone inhibition after 24 hr by disk diffusion method
Proteus vulgaris [7] = experiment: Antibacterial activity against Proteus vulgaris NCIM 2027 assessed as growth inhibition after 48 hr by NCCLS broth dilution method; conditions: NCIM 2027, 48 h
Pseudomonas aeruginosa [8] = experiment: Antibacterial activity against Pseudomonas aeruginosa NCIM 2036 assessed as diameter of growth zone inhibition after 24 hr by disk diffusion method
Staphylococcus aureus [9] = experiment: Antibacterial activity against Staphylococcus aureus NCIM 2079 assessed as diameter of growth zone inhibition after 24 hr by disk diffusion method
Bacillus subtilis [10] = experiment: Antibacterial activity against Bacillus subtilis NCIM 2156 assessed as diameter of growth zone inhibition after 24 hr by disk diffusion method
Bacillus subtilis [11] = experiment: Antibacterial activity against Bacillus subtilis NCIM 2156 assessed as growth inhibition after 48 hr by NCCLS broth dilution method; conditions: NCIM 2156, 48 h
Escherichia coli [12] = experiment: Antibacterial activity against Escherichia coli NCIM 2065 assessed as growth inhibition after 48 hr by NCCLS broth dilution method; conditions: NCIM 2065, 48 h

SMILES	MIC (Pseudomonas aeruginosa [1])	diameter of the inhibition zone (DIZ) (Proteus vulgaris [2])	MIC (Staphylococcus aureus [3])	MIC [4]	diameter of the inhibition zone (DIZ) (Escherichia coli [5])	diameter of the inhibition zone (DIZ) [6]	MIC (Proteus vulgaris [7])	diameter of the inhibition zone (DIZ) (Pseudomonas aeruginosa [8])	diameter of the inhibition zone (DIZ) (Staphylococcus aureus [9])	diameter of the inhibition zone (DIZ) (Bacillus subtilis [10])	MIC (Bacillus subtilis [11])	MIC (Escherichia coli [12])
O=C(O)c1cn(C2CC2)c2cc(N3CCNCC3)c(F)cc2c1=O [CIPROFLOXACIN]	10 µg/mL (≈ 30.2 µM)	28 mm	10 µg/mL (≈ 30.2 µM)	10 µg/mL (≈ 30.2 µM)	30 mm	28 mm	10 µg/mL (≈ 30.2 µM)	24 mm	26 mm	22 mm	10 µg/mL (≈ 30.2 µM)	
Cc1cc(/N=C2\C(=O)N(S(C)(=O)=O)c3ccc(OC(F)(F)F)cc32)ccc1N1C(=O)c2ccc(Cl)cc2C1=O	15 µg/mL (≈ 26 µM)	16 mm	15 µg/mL (≈ 26 µM)	10 µg/mL (≈ 17.3 µM)	22 mm	18 mm	15 µg/mL (≈ 26 µM)	14 mm	16 mm	18 mm	15 µg/mL (≈ 26 µM)	10 µg/mL (≈ 17.3 µM)
Cc1cc(/N=C2\C(=O)N(Cc3ccccc3)c3ccc([N+](=O)[O-])cc32)ccc1N1C(=O)c2ccc(Cl)cc2C1=O	15 µg/mL (≈ 27.2 µM)	14 mm	30 µg/mL (≈ 54.5 µM)	15 µg/mL (≈ 27.2 µM)	16 mm	10 mm	15 µg/mL (≈ 27.2 µM)	14 mm	12 mm	10 mm	25 µg/mL (≈ 45.4 µM)	15 µg/mL (≈ 27.2 µM)
Cc1ccc2c(c1)/C(=N/c1ccc(N3C(=O)c4ccc(Cl)cc4C3=O)c(C)c1)C(=O)N2	15 µg/mL (≈ 34.9 µM)	10 mm	10 µg/mL (≈ 23.3 µM)	15 µg/mL (≈ 34.9 µM)	12 mm	10 mm	20 µg/mL (≈ 46.5 µM)	16 mm	20 mm	12 mm	25 µg/mL (≈ 58.2 µM)	20 µg/mL (≈ 46.5 µM)
CCCN1C(=O)/C(=N\c2ccc(N3C(=O)c4ccc(Cl)cc4C3=O)c(C)c2)c2cc([N+](=O)[O-])ccc21	20 µg/mL (≈ 39.8 µM)	12 mm	30 µg/mL (≈ 59.7 µM)	15 µg/mL (≈ 29.8 µM)	12 mm	12 mm	20 µg/mL (≈ 39.8 µM)	10 mm	10 mm	10 mm	30 µg/mL (≈ 59.7 µM)	20 µg/mL (≈ 39.8 µM)
Cc1cc(/N=C2\C(=O)N(S(C)(=O)=O)c3ccc([N+](=O)[O-])cc32)ccc1N1C(=O)c2ccc(Cl)cc2C1=O	10 µg/mL (≈ 18.6 µM)	14 mm	15 µg/mL (≈ 27.8 µM)	10 µg/mL (≈ 18.6 µM)	24 mm	18 mm	15 µg/mL (≈ 27.8 µM)	18 mm	16 mm	16 mm	15 µg/mL (≈ 27.8 µM)	10 µg/mL (≈ 18.6 µM)
Cc1cc(/N=C2\C(=O)N(S(=O)(=O)c3ccc([N+](=O)[O-])cc3)c3ccc([N+](=O)[O-])cc32)ccc1N1C(=O)c2ccc(Cl)cc2C1=O	10 µg/mL (≈ 15.5 µM)	14 mm	10 µg/mL (≈ 15.5 µM)	10 µg/mL (≈ 15.5 µM)	22 mm	20 mm	15 µg/mL (≈ 23.2 µM)	18 mm	18 mm	16 mm	15 µg/mL (≈ 23.2 µM)	10 µg/mL (≈ 15.5 µM)
Cc1cc(/N=C2\C(=O)Nc3ccc([N+](=O)[O-])cc32)ccc1N1C(=O)c2ccc(Cl)cc2C1=O	10 µg/mL (≈ 21.7 µM)	11 mm	10 µg/mL (≈ 21.7 µM)	10 µg/mL (≈ 21.7 µM)	22 mm	20 mm	15 µg/mL (≈ 32.5 µM)	18 mm	20 mm	16 mm	15 µg/mL (≈ 32.5 µM)	10 µg/mL (≈ 21.7 µM)
C#CCN1C(=O)/C(=N\c2ccc(N3C(=O)c4ccc(Cl)cc4C3=O)c(C)c2)c2cc([N+](=O)[O-])ccc21	15 µg/mL (≈ 30.1 µM)	10 mm	25 µg/mL (≈ 50.1 µM)	20 µg/mL (≈ 40.1 µM)	18 mm	8 mm	20 µg/mL (≈ 40.1 µM)	14 mm	13 mm	8 mm	30 µg/mL (≈ 60.1 µM)	15 µg/mL (≈ 30.1 µM)
Cc1cc(/N=C2\C(=O)N(S(=O)(=O)C(F)(F)F)c3ccc(OC(F)(F)F)cc32)ccc1N1C(=O)c2ccc(Cl)cc2C1=O	15 µg/mL (≈ 23.7 µM)	20 mm	15 µg/mL (≈ 23.7 µM)	15 µg/mL (≈ 23.7 µM)	23 mm	10 mm	10 µg/mL (≈ 15.8 µM)	12 mm	18 mm	20 mm	10 µg/mL (≈ 15.8 µM)	10 µg/mL (≈ 15.8 µM)
Cc1cc(/N=C2\C(=O)N(S(=O)(=O)c3ccc([N+](=O)[O-])cc3)c3ccc(OC(F)(F)F)cc32)ccc1N1C(=O)c2ccc(Cl)cc2C1=O	10 µg/mL (≈ 14.6 µM)	22 mm	10 µg/mL (≈ 14.6 µM)	10 µg/mL (≈ 14.6 µM)	20 mm	18 mm	10 µg/mL (≈ 14.6 µM)	18 mm	20 mm	14 mm	15 µg/mL (≈ 21.9 µM)	10 µg/mL (≈ 14.6 µM)
